Data set [1] concerns Cell membrane. As to the kind of experiment: Induction of cell membrane damage in Staphylococcus aureus ATCC 43300 at 0.5 times MIC after 90 mins by confocal laser scanning microscopy analysis. The format is subcellular.
Data set [2] deals with Staphylococcus aureus. As to the kind of experiment: Antibacterial activity against methicillin resistant Staphylococcus aureus ATCC 52056 assessed as reduction in microbial growth after 16 to 18 hrs by microbroth dilution method. It counts as functional. Conditions: time 16-18 hrs. In general terms: Dilution methods test growth across graded concentrations, often in twofold steps.

Data set [3] relates to Cell membrane. Nature of the data set: Induction of cell membrane permeabilization in methicillin resistant Staphylococcus aureus ATCC 43300 assessed as fluorescence intensity at 0.5 to 2 times of MIC measured after 30 mins by propidium iodide staining based fluorescence assay. It counts as subcellular.
For data set [4], the system named is Staphylococcus aureus. Nature of the data set: Antibacterial activity against Staphylococcus aureus ATCC 25923 assessed as reduction in microbial growth after 16 to 18 hrs by microbroth dilution method. It counts as functional. The following applies: time 16-18 hrs.
The nature of data set [5]: Toxicity in BALB/c mouse infected with methicillin-resistant Staphylococcus aureus ATCC 43300 assessed as damage in kidney at 50 to 200 mg/kg, sc administered every 24 hrs for 4 days by H&E staining based light microscopic analysis. It counts as organism-based. The following applies: in vivo, dose 50-200 mg/kg.
Data set [6] has as its system Staphylococcus aureus. Nature of the data set: Inhibition of biofilm formation in methicillin-resistant Staphylococcus aureus ATCC 43300 at 1 times MIC incubated for 24 hrs by crystal violet staining based microplate reader assay. The format is functional.
In data set [7] the test system is Staphylococcus aureus. Nature of the data set: Antibacterial activity against methicillin resistant Staphylococcus aureus ATCC49008 assessed as reduction in microbial growth after 16 to 18 hrs by microbroth dilution method. Conditions: time 16-18 hrs. It counts as functional.
The subject of data set [8] is Staphylococcus aureus. Nature of the data set: Antibacterial activity against methicillin resistant Staphylococcus aureus ATCC49025 assessed as reduction in microbial growth after 16 to 18 hrs by microbroth dilution method. It counts as functional. Conditions: time 16-18 hrs.
For data set [9], the system named is Staphylococcus aureus. Nature of the data set: Antibacterial activity against methicillin resistant Staphylococcus aureus ATCC 62202 assessed as reduction in microbial growth after 16 to 18 hrs by microbroth dilution method. It counts as functional. Conditions: time 16-18 hrs.
For data set [10], the system named is Staphylococcus aureus. As to the kind of experiment: Synergistic antimicrobial activity against Staphylococcus aureus ATCC 43300 assessed as FICI at 0.25 times MIC after 24 hrs in presence of 128 ug/ml piperacillin by checkerboard assay. It counts as functional.
Data set [11] has as its system Staphylococcus aureus. Nature of the data set: Inhibition of biofilm formation in methicillin-resistant Staphylococcus aureus ATCC 43300 at 4 times MIC incubated for 24 hrs by crystal violet staining based microplate reader assay. It counts as functional.
The subject of data set [12] is Cell membrane. Nature of the data set: Induction of cell membrane damage in methicillin resistant Staphylococcus aureus ATCC 43300 assessed as increase in ATP leakage […] at 4 times MIC measured every 30 mins for 6 hrs by Bactiter-glo assay.
The test system of data set [13] is Staphylococcus aureus. As to the kind of experiment: Antibacterial activity against methicillin resistant Staphylococcus aureus ATCC513045 assessed as reduction in microbial growth after 16 to 18 hrs by microbroth dilution method. It counts as functional. The following applies: time 16-18 hrs.
For data set [14], the system named is Staphylococcus aureus. As to the kind of experiment: Synergistic antimicrobial activity against Staphylococcus aureus ATCC 43300 assessed as FICI at 1 times MIC after 24 hrs in presence of 32 ug/ml piperacillin by checkerboard assay. It counts as functional.
Data set [15] can be described thus: Toxicity in BALB/c mouse infected with methicillin-resistant Staphylococcus aureus ATCC 43300 assessed as damage in liver at 50 to 200 mg/kg, sc administered every 24 hrs for 4 days by H&E staining based light microscopic analysis. It counts as organism-based. The following applies: in vivo, dose 50-200 mg/kg.

The source made the active and inactive calls.

For `CC(C)=CCc1c(OCCF)cc(/C=C/c2ccc(F)cc2)c(C(=O)O)c1O`, the result in the data set on Cell membrane [1] and with Cell membrane [12] was Active. For the same molecule, the MIC came to 4 µg/mL with Staphylococcus aureus [2]; 2 µg/mL with Staphylococcus aureus [4]; 4 µg/mL in the data set with Staphylococcus aureus [7]; 4 µg/mL with Staphylococcus aureus [8]; 4 µg/mL in the data set with Staphylococcus aureus [9]; 4 µg/mL in the data set with Staphylococcus aureus [13]. Further, the Activity result in the data set on Cell membrane [3] is “Dose-Dependent Effect”; in [5], “Non-Toxic”; in [15], “Non-Toxic”. In addition, the “inhibition (INH)” value in the data set with Staphylococcus aureus [6] came to 50%; in the data set with Staphylococcus aureus [11] it was 90%. The entries for the “fractional inhibitory concentration index (FICI)” value in the data set with Staphylococcus aureus [10] and in the data set with Staphylococcus aureus [14] were 0.3125 and 0.315, respectively.

The MIC is the smallest concentration in the dilution series that meets the test's criterion for growth inhibition.
